Results taken from patent US7186703B2, “Derivatives of branched-chain lipophilic molecules and uses thereof” (D-Pharm Ltd., priority 2000, dated 2007).
“And” between values parts separate entries of the source, which are not always exact repeats. Equal values may be shown once.

Columns and labels:
[1] = system: blood brain barrier (BBB); experiment: BBB permeabilization in rats, Evans blue extravasation into brain; format: in vivo, Sprague-Dawley rats; details: for μg EB/g brain (at EC50) / EC50 / MEC (minimal effective concentration): Table 5; for EC50: rat brain, intracarotid infusion, read-out: EC50 (Evans Blue extravasation); for MEC: Table 8, sodium salt, in µM; for permeabilization of the BBB (FIG. 1, in words): Evans blue extravasation in rat brain, 3,n-type BFAs; for MEC (minimal effective concentration): concentration giving 3 μg EB/g brain
Text: Permeabilization of the BBB by DP-BFA was investigated in rat model system by monitoring accumulation in the brain of two markers: a) Evans blue dye (EB), which rapidly binds in vivo with albumin (NW 70 kD) and is an indicator for paracellular transport; and b) Fluorescein sodium salt (F—Na), MW 376 D, which is transported via the cellular space, and enables monitoring transcellular transport. Upon BBB disruption the Evans blue-albumin complex irreversibly accumulates in the intercellular space of the brain. The much smaller tracer fluorescein may be transported intracellularly to occupy both inter and intracellular space in the brain.
Blood brain barrier permeabilization in Sprague-Dawley rats was induced by brief exposure to DP-BFA. The animals were anesthetized with Rampun-Imalgen and DP-BFA test compounds were administered via the external carotid artery retrograde to the brain (Smith, Q. R. Methods of study. In: Physiology and Pharmacology of the Blood-Brain Barrier. Ed. Bradbury M. W. B. Spinger-Verlag. Berlin-Heidelberg-NY; 1992: 24–52). The pterygo-palathina artery was ligated to avoid escape of infused solutions towards the external head vasculature. DP-BFA solutions were infused over a period of 30 seconds or half an hour, using a Harvard Apparatus Syringe Pump. Blood flow through carotid communis artery was interrupted only at the time of infusion.
All tested DP-BFA molecules were prepared from stock solutions in either water or ethanol by diluting 200–1000 fold into solution of isosmotic mannitol (5%) in Tromethamine buffer (Sigma) or PBS (pH 7.4)
The markers, Evans blue (EB, 25 mg/ml) and fluorescein (F—Na, 12.5 mg/ml), in 1 ml solution, were injected intravenously immediately following administration of the tested DP-BFA, or after a specific time interval if reversibility of action was investigated. Supportive i.v. infusion of F—Na (12.5 mg/ml–100 μl/min) was performed for 8 minutes. Brains were washed with saline solution (60 ml) 10 min after the intracarotid “flash”. Brain ipsilateral and contralateral hemispheres and tumors, where applicable, were homogenized separately with 50% trichloroacetic acid (TCA). The markers concentrations in the cortex and in tumors, where, applicable, were determined spectrofluorometrically (Uyama, O. et al., (1988) J. Cereb. Blood Flow Metab. 8, 282–284: Abraham et al., (1996) Neurosci. Lett. 208, 85–88). The markers content was calculated as μg marker per one-gram brain tissue. Standard error and Student's test for statistical significance were used.
The experiment was carried out on male Sprague-Dawley rats weighing 250–320 g. The procedure described above in Example 17 was followed.
The effect of the tested compounds on the BBB opening was evaluated by two parameters:
a) efficacy—The degree of BBB opening estimated in terms of accumulation of Evans Blue albumin (μg EB/g brain tissue); and
b) potency—measured in terms of EC50 and minimal effective concentration (MEC) values. EC50 is the concentration of a tested compound producing 50% of the maximal effect of Evans Blue extravasation.
The effect of various DP-BFAs on BBB permeability was tested in the model system of rat brains, as described above in Example 17. Efficacy, namely the level of the BBB opening was expressed as the amount of Evans blue accumulated in the brain (μg EB/g brain). Potency of the tested molecules was estimated by their calculated EC50 and minimal effective concentration (MEC) values.

[2] = format: in vivo; details: rats, sodium salt; for LC (minimal concentration that caused death): i.a., viability monitored 24 hours
Method: DP-BFA molecules were evaluated for safety and toxicity. Increasing doses of the tested compounds were administered intra-arterially (i.a.) into rats following the protocol described above in Example 17. Animal viability was monitored for 24 hours to evaluate lethal concentrations (LC). LC is defined as the minimal concentration that caused death.
Safety index is defined as the ratio between the lethal dose (LC) and the minimal effective concentration (MEC), wherein MEC corresponds to a calculated concentration of the tested compound that elicits accumulation of three times the amount of Evans blue accumulated in control animals treated with vehicle only, i.e. total accumulation of 3 μg EB. The higher the LC/MEC ratio is, the higher the safety index.

[3] = system: blood tumor barrier (BTB) of C6 glioma; experiment: BTB opening in C6 glioma-bearing rats, Evans blue accumulation in tumor; format: in vivo, Sprague Dawley rats; details: for EC50: C6 glioma-bearing rats; for BTB EB μg/g Tumor: concentrations around EC50 (Mannitol 25%), unilateral 30 s infusion; for Specificity Tumor/Non-tumor (T/NT): ratio of EB accumulated in tumor and non-tumor brain
Method: (§1) In order to study the ability of DP-BFA compounds to modulate blood tumor barrier (BTB), a model system of C6 glioma-bearing rats, was employed.
(§2) Sprague Dawley (SD) rats were inoculated with C6 gliosarcoma cells following the procedure described by Bartus et al. (Exp Neurol (1996); 142:14–28). A small burr-hole was made in the frontal scalp bone of the rat fixed in a stereotaxis apparatus. Using a Hamilton syringe, 10 μl or 5 μl of media, containing 2.5×10^5 C6 gliosarcoma cells were inoculated into the frontal cortex. Coordinates were 1 mm posterior of bregma, 2.5 mm—lateral, and 3 mm—depth. The needle remained in the place for 5 min. After removal of the needle, fascia and scalp were sutured. The rats were checked 6–8 days after inoculation, when tumors of sufficient size (20–60 mg) had developed. The tumor was weighed after F—Na visualization and dissection. Parts of the rats' brains were subject to histological examinations and monitored for Evans Blue and Fluorescein uptake into ipsilateral tumour tissue, peritumoural tissue and contralateral tissue.
(§3) The bilateral tumor model system of C6 glioma-bearing rats described in Example 23 above was employed for screening of various derivatives of DP-BFA for their ability to permeabilize the blood brain barrier (BBB) in comparison to their effect on the blood tumor barrier (BTB). The experimental procedure described in Example 23 was followed except that the tumor-bearing rats were further treated with DP-BFA. The tested compounds, at concentrations around their EC50 values, were unilaterally infused into the external carotis artery over 30 seconds as described in Example 17. Animals treated with vehicle only serve as a control group. Permeabilization effect was quantitated by measuring accumulation of albumin bound Evans blue dye in tumor (T) versus non-tumor (NT) tissues.
(§4) Specificity index is defined as the ratio between the levels of EB accumulated in tumor and those accumulated in non-tumor brain tissues (T/NT).

[4] = system: blood brain barrier (BBB); experiment: BBB opening in C6 glioma-bearing rats, Evans blue accumulation in non-tumor brain; format: in vivo, Sprague Dawley rats; details: concentrations around EC50 (Mannitol 25%), unilateral 30 s infusion
Method: as §1, §2, §3, §4

[5] = Octanol/saline solubility and partition coefficient, shake-flask technique; details: for LogPc (octanol-saline partition coefficient): octanol/physiological saline; for LogPc (octanol-saline partition coefficient) / Water mg/ml (solubility in aqueous solution): sodium salts; for Water mg/ml (solubility in aqueous solution): physiological saline as aqueous solution; for Octanol mg/ml (solubility in octanol): sodium salts of the branched fatty acids and their PO4 derivatives
Method: The lipophilicity values of various derivatives of branched fatty acids were estimated by comparing the solubility of these compounds in organic versus aqueous solutions. Octanol and physiological saline were used, respectively, as the organic and aqueous solutions. The partition coefficient (Pc) value, i.e. the octanol/saline distribution was measured by the shake-flask technique.

[6] = system: blood brain barrier (BBB); experiment: BBB permeability to EB-albumin and Fluorescein in normal rat brains; format: in vivo; details: compounds at EC50 (Mannitol 25%); for Ratio F-Na/EB (mean of individual ratios): control 9.5 ± 1.6
Text: The effect of various DP-BFAs on BBB permeabilization to molecules of different sizes was examined in vivo in the model system of normal rat brains.
The transport of two markers was followed: a) Evans blue bound to albumin (MW 70 kD) as an indicator for paracellular transport; and b) Fluorescein sodium salt (MW 376 D) that represents small size molecules.
The Evans blue dye (EB) and Fluorescein sodium salt (F—Na) were infused into the artery carotis externa over 30 seconds according to the protocol described above in Example 17. The test compounds were used at their EC50 concentrations. Control animals were treated with vehicle solution.
Evans blue extravasation is expressed as the percentage of the total amount of EB accumulated per one gram of brain tissue. The transport of fluorescein into the brain, which is dependent on the serum concentration of this molecule, is presented as percentage of the F—Na level in the serum.

Molecule	μg EB/g brain (at EC50) [1] [μg EB/g brain]	EC50 [1] [µM]	MEC [1]	LC (minimal concentration that caused death) [2] [µM]	Safety LC/MEC [2]	EC50 [3] [µM]	BTB EB μg/g Tumor [3] [µg/g]	Specificity Tumor/Non-tumor (T/NT) [3]	BBB EB μg/g Non-tumor brain [4] [µg/g]	LogPc (octanol-saline partition coefficient) [5]	Water mg/ml (solubility in aqueous solution) [5] [mg/mL]	Octanol mg/ml (solubility in octanol) [5] [mg/mL]	Ratio F-Na/EB (mean of individual ratios) [6]	permeabilization of the BBB (FIG. 1, in words) [1]	MEC (minimal effective concentration) [1]	% EB/g brain ([6]; control 0.04 ± 0.01) [%]	Brain fluorescein uptake (% of serum F-Na level) ([6]; control 0.3 ± 0.08)
CCCCCCCC(CCC)C(=O)[O-].[Na+] (stereo not shown) [3,7-Na, reference compound]	0.8	> 450	–	–	–	–	–	–	–	–	–	–	–	–	–	–	–
4-Octadecyl phosphate [3,14-PO4]	–	–	6.2 ± 0.9	134 ± 18	21.6	–	–	–	–	–	–	–	–	–	–	–	–
4-Hexadecanoyloxyethyl phosphate [3,12-MEG-PO4]	–	–	11 ± 2	80 ± 15	–	22 ± 3	25 ± 3	1.2 ± 0.2	21 ± 4	1.09	>10	>10	–	–	–	–	–
CCCCCCCCCCC(CCC)C(=O)[O-].[Na+] (stereo not shown) [3,10-Na, reference compound]	08	~700	–	–	–	–	–	–	–	–	–	–	–	–	–	–	–
CCCCCCCCCCCCC(CCC)OCCOCCOP(=O)(O)O (stereo not shown) [3,12-(ether)-DEG-PO4, 2-(4′-Hexadecanyloxy)ethoxyethyl phosphate]	–	–	–	–	–	–	–	–	–	0.83	>5	>5	–	–	–	–	–
CCCCCCCC(CCCCCCC)OP(=O)(O)O [7,7-PO4, 8-Pentadecyl phosphate]	–	–	–	–	–	–	–	–	–	<5	>10	>10	–	–	–	–	–
4-Hexadecanyl Phosphate [3,12-PO4]	–	–	3.3 ± 0.5	63 ± 12	19.1	10 ± 2	14 ± 6	6.3 ± 1.3	2.5 ± 1.5	1.9	>2.5	<5	5.9	–	–	–	–
CCCCCCCCCCCCCCC(CCC)C(=O)[O-].[Na+] (stereo not shown) [3,14-Na, reference compound]	16.5 ± 2.5	40 ± 5	9.1 ± 1.2	78 ± 11	8.6	–	–	–	–	1.26	>10	>20	4.7 and 4.7 ± 1.7	active	9.1 ± 12	0.8 ± 0.07	3.8 ± 0.5 % of the F—Na level in the ser
CCCCCCCCCCCCCCCCC(CCC)C(=O)[O-].[Na+] (stereo not shown) [3,16-Na, reference compound]	–	137 ± 17	18 ± 2	431 ± 55	23.9	–	–	–	–	1.26	9.4	>20	–	active	18 ± 2	–	–
